Laboratory results reported in patent US7384656B2, “Anti-allergy composition and related method” (Access Business Group International LLC, priority 2004, dated 2008).

Test system: IgE receptor (FcεRIα) on RBL-2H3 cells
Test: IgE receptor expression on RBL-2H3 cells (anti-FcεRIα cell ELISA normalized to MTT viability)
Format: cell-based
Conditions: 100 μg/ml
Method: The methodology used to obtain the results of FIG. 1 will now be described. First, RBL-2H3 cells, available from ATCC (American Type Culture Collection) of Manassas, Va., were plated in 96 well plates at 3×10^4/well. Following adherence to the wells, the cells were exposed to the sample combinations of ingredients listed in Table I, each combination referred to as a “sample.” Stock solutions of all samples were prepared in a solution of DMSO, ethanol, and water present in a ratio of 5:3:2 at 100 mg/ml. […] Duplicate plates of each sample were prepared so that viability could be determined multiple times for each sample, with the results of the multiple samples averaged following treatment of the cells. The plates were incubated an additional 48 hours. To measure IgE-receptor expression, the cells were fixed for 2 hours with 1% gluteraldehyde. Following fixation, the cells were washed twice with PBS-Tween 20 (0.01%), available from Aldrich of Milwaukee, Wis. Protein binding sites were blocked for 2 hours with 2% non-fat dry milk in PBS (Phosphate Buffer Saline buffered at pH 7.3). The cells were washed twice. The primary antibody, Rabbit anti-FcεRIα, available from Upstate Group, Inc., Lake Placid, N.Y., was added to the wells and diluted 1:4000 with 0.2% BSA (Bovine Serum Albumin). Following a 2 hour incubation, the wells were washed 5× with PBS-Tween 20 (0.01%) solutions. The secondary antibody, Goat anti-rabbit IgG-peroxidase, available from Sigma-Aldrich of St. Louis, Mo., was added to the wells at 1:20000 with 0.2% BSA. Following a 1 hour incubation the wells were washed five times. 100 μliters (microliters) of TMB (3,3′,5,5±Tetramethyl benzidine dihydrochloride) Substrate, available from Chemicon International of Temecula, Calif., was added to the wells. Subsequent color development was stopped by the addition of a sufficient amount, H2SO4 (for example, 100 μliters at 1 Normal). For each of the multiple samples of the combination, the OD450 (Optical Density measured at a wavelength of 450 nanometers) was read on a plate reader. Continuing with a description of the methodology to obtain the data in FIG. 1, the viability of the cells was next determined by incubating the cells in the second plate with MTT in a concentration of 1 mg/ml for 3 hours. The reduced MTT was extracted with 70% isopropanol and the OD540 (Optical Density at a wavelength of 540 nanometers) was read for each of the multiple samples.

O=c1cc(-c2ccc(O)c(O)c2)oc2cc(O)cc(O)c12 [Luteolin]
Percent Control, IgE Receptor Expression (IgE-R) (Table VIII): about 90% | effect on IgE receptor expression, in words (FIG. 7): significant effect | Percent Control IgE-Receptor (Table IV) (relative to untreated control cells): 82% | Percent Control, IgE Receptor Expression (IgE-R) (Table VIII) (listed as Luteolin from Perilla seed): 90.1%
